{"source": "paper PMC4193777", "about": "(PLoS ONE, 2014)", "key": {"FPR2": {"system": "FPR2", "assay": "Calcium mobilization in undifferentiated HL-60 cells overexpressing FPR2", "format": "cell-based", "details": "Fura-2; F2Pal10 10 nM", "text": "The procedures used to obtain stable expression of FPR1 and FPR2 in undifferentiated HL-60 cells have been previously described. To prevent possible auto-differentiation due to the accumulation of differentiation factors in the culture medium, cells were passed twice a week before they reached a density of 2×10^6 cells/ml. At each passage, an aliquot of the cell culture was centrifuged, the supernatant was discarded and the cell pellet was resuspended in fresh RPMI 1640 medium containing FCS (10%), PEST (1%), and G418 (1 mg/ml).\nNeutrophils or transfected HL-60 cells at a density of 5×10^7 cells/ml in KRG containing 0.1% BSA were loaded with 5 µM FURA 2-AM for 30 minutes in the dark at room temperature. […] Calcium measurements were carried out in a PerkinElmer fluorescence spectrophotometer (LC50), with excitation wavelengths of 340 nm and 380 nm, an emission wavelength of 509 nm, and slit widths of 5 nm and 10 nm, respectively. The transient rise in intracellular calcium is presented as the ratio of fluorescence intensities (340 nm: 380 nm) detected. […] The relative calcium level was expressed as a ratio between Fluo-3 and Fura Red (FL-1/FL-3) fluorescence over time.\nFigure 1 The F2Pal10 pepducin specifically activates FPR2. […] The release of superoxide anions was recorded continuously. […] Abscissa, time of study (sec); ordinate, fluorescence (arbitrary units)."}, "desensitized FPR2": {"system": "desensitized FPR2", "assay": "PAF-induced cross-talk reactivation of desensitized FPR2 (superoxide)", "format": "cell-based, human", "method": "Human peripheral blood neutrophils were isolated from buffy coats from healthy blood donors using dextran sedimentation and Ficoll-Paque gradient centrifugation as described. The remaining erythrocytes were disrupted by hypotonic lysis, the neutrophils were washed twice, resuspended in KRG, and stored on melting ice until use. This isolation procedure permits cells to be purified with minimal granule mobilization.\nThe NADPH-oxidase activity was determined using isoluminol-enhanced chemiluminescence (CL), [27]. The CL activity was measured in a six-channel Biolumat LB 9505 (Berthold Co., Wildbad, Germany), using disposable 4-ml polypropylene tubes with a 900 µl reaction mixture containing 10^5 cells, isoluminol (2×10^−5 M) and HRP (2 U). The tubes were equilibrated in the Biolumat for 5 min at 37°C, after which the stimulus (100 µl) was added and the light emission was recorded continuously. Receptor desensitized cells were defined as naïve (non-desensitized) cells that had first been stimulated with a receptor specific agonist and returned to baseline after the resulting release of superoxide before a second stimulation. When reactivation experiments were performed with antagonists, the antagonists were added to the CL reaction mixture 1 min before the second stimulation. For studies with signaling inhibitors, cells were incubated with inhibitors at 37°C for 15 min before agonist addition. Control cells received no treatment but were incubated under the same conditions.\nFigure 3 PAF- or ATP-stimulation induces reactivation of desensitized FPR2. […] A representative experiment is shown and the time point for addition of FPR2 agonists is indicated by the first arrow, the time point for PAF stimulation (100 nM final concentration) with the second arrow. The control PAF response induced in naïve (non-desensitized) neutrophils is shown for comparison (dotted line). Abscissa: Time of study (min); ordinate: Superoxide production (Mcpm). B. Naïve neutrophils were first desensitized with F2Pal10 (F2Pal10des., 500 nM final concentration) and subsequently stimulated with PAF (100 nM final concentration; time point for PAF addition is indicated by an arrow). The FPR2 specific inhibitor PBP10 (1 µM) was added 1 min prior to PAF stimulation (dashed line) and the release of superoxide anions was recorded continuously. The PAF responses induced in naïve cells (solid line), as well as in F2Pal10-desensitized cells receiving no PBP10 (dotted line), are shown for comparison. Abscissa: Time of study (min); ordinate: Superoxide production (Mcpm). C. Effect of calyculin A on receptor cross-talk induced FPR2 reactivation. Cells desensitized with F2Pal10 (F2Pal10des.) were incubated with the phosphatase inhibitor calyculin A (60 nM; solid line) or buffer as control (dashed line) for 10 min at 37°C prior to PAF stimulation (100 nM). The release of superoxide anions was recorded continuously. Abscissa: Time of study (min); ordinate: Superoxide production (Mcpm). […] Abscissa: Time of study (min); ordinate: Superoxide production (Mcpm). […] The results are given as peak values of superoxide production following addition of ATPγS (mean+SEM; n = 3).\nFigure 4 More pronounced reactivation was induced by PAF in neutrophils desensitized by the pepducin F2Pal10. […] The results are given as peak values of superoxide production from three separate experiments for the first stimulation with FPR2 agonists (mean+SEM, n = 3). […]"}}}
{"smiles": "CSCC[C@H](NC(=O)[C@@H](NC(=O)[C@H](CCSC)NC(=O)[C@H](Cc1ccc(O)cc1)NC(=O)[C@H](CCCCN)NC(=O)[C@@H](N)Cc1c[nH]c2ccccc12)C(C)C)C(N)=O", "note": "[WKYMVM]", "values": [{"measurement": "intracellular calcium response, FPR2 HL-60 cells", "setting": "FPR2", "value": "time course of the response was very similar"}, {"measurement": "type of agonism, cross-talk reactivation", "setting": "desensitized FPR2; PAF- and ATP-induced cross-talk reactivation of desensitized FPR2", "value": "partial agonist"}, {"measurement": "priming of PAF response in desensitized neutrophils", "setting": "desensitized FPR2; desensitizing agent F2Pal10 500 nM or WKYMVM 40 nM, PAF 100 nM", "value": "primed in their response to PAF"}]}
